In ChEMBL document CHEMBL3132797, “Synthesis and biological evaluation of substituted N-alkylphenyl-3,5-dinitrobenzamide analogs as anti-TB agents” (Medchemcomm, 2014):
Values after ≈ are worked out from the molar mass of the structure shown.

Experiments:
Assay type in all cases: functional
[1] = system: Mycobacterium tuberculosis; test: Antimycobacterial activity against rifampicin-resistant Mycobacterium tuberculosis clinical isolates by broth dilution method
[2] = system: Mycobacterium tuberculosis; test: Antimycobacterial activity against multidrug-resistant Mycobacterium tuberculosis clinical isolates by broth dilution method
[3] = system: Mycobacterium tuberculosis; test: Antimycobacterial activity against isoniazid-resistant Mycobacterium tuberculosis clinical isolates by broth dilution method

SMILES	MIC [1]	MIC [2]	MIC [3]
Cc1c([N+](=O)[O-])cc(C(=O)N[C@@H](C)c2ccc(F)cc2)cc1[N+](=O)[O-]	< 0.04 µM	0.72 µM (≈ 0.25 µg/mL)	0.72 µM (≈ 0.25 µg/mL)
O=C(Nc1ccc(F)cc1)c1cc([N+](=O)[O-])cc([N+](=O)[O-])c1	13 µM (≈ 3.98 µg/mL)	–	–
Cc1c([N+](=O)[O-])cc(C(=O)N[C@H](C)c2ccc(F)cc2)cc1[N+](=O)[O-]	11.5 µM (≈ 4 µg/mL)	5.76 µM (≈ 2 µg/mL)	11.5 µM (≈ 4 µg/mL)
O=C(NC1CCCC1)c1cc([N+](=O)[O-])cc([N+](=O)[O-])c1	0.9 µM (≈ 0.251 µg/mL)	–	–
Cc1ccc([C@@H](C)NC(=O)c2cc([N+](=O)[O-])cc([N+](=O)[O-])c2)cc1	< 0.05 µM	12.2 µM (≈ 4 µg/mL)	< 0.05 µM
CC(C)c1ccc(NC(=O)c2cc([N+](=O)[O-])cc([N+](=O)[O-])c2)cc1	48.6 µM (≈ 16 µg/mL)	–	–
O=C(Nc1ccccc1F)c1cc([N+](=O)[O-])cc([N+](=O)[O-])c1	13 µM (≈ 3.98 µg/mL)	–	–
CO[C@H]1/C=C/O[C@@]2(C)Oc3c(C)c(O)c4c(O)c(c(/C=N/N5CCN(C)CC5)c(O)c4c3C2=O)NC(=O)/C(C)=C\C=C\[C@H](C)[C@H](O)[C@@H](C)[C@@H](O)[C@@H](C)[C@H](OC(C)=O)[C@@H]1C [RIFAMPIN]	256 µM (≈ 211 µg/mL)	64 µM (≈ 52.7 µg/mL)	–
Cc1c([N+](=O)[O-])cc(C(=O)NCc2ccccc2)cc1[N+](=O)[O-]	3.17 µM (≈ 0.999 µg/mL)	–	–
Cc1ccc([C@@H](C)NC(=O)c2cc([N+](=O)[O-])c(C)c([N+](=O)[O-])c2)cc1	< 0.04 µM	0.35 µM (≈ 0.12 µg/mL)	0.35 µM (≈ 0.12 µg/mL)
C[C@@H](NC(=O)c1cc([N+](=O)[O-])cc([N+](=O)[O-])c1)c1ccccc1	< 0.047 µM	12.7 µM (≈ 4 µg/mL)	0.79 µM (≈ 0.249 µg/mL)
NNC(=O)c1ccncc1 [ISONIAZID]	–	16 µM (≈ 2.19 µg/mL)	64 µM (≈ 8.78 µg/mL)
Cc1ccc(C(C)NC(=O)c2cc([N+](=O)[O-])c(C)c([N+](=O)[O-])c2)cc1 (racemic)	< 0.17 µM	–	–
CCCCC(CC)CNC(=O)c1cc([N+](=O)[O-])cc([N+](=O)[O-])c1 (stereo not drawn)	< 0.19 µM	–	–
N#Cc1ccccc1NC(=O)c1cc([N+](=O)[O-])cc([N+](=O)[O-])c1	3.2 µM (≈ 0.999 µg/mL)	–	–
CC[C@@H](CO)NCCN[C@@H](CC)CO [ETHAMBUTOL]	–	16 µM (≈ 3.27 µg/mL)	–
COc1ccc(CCNC(=O)c2cc([N+](=O)[O-])cc([N+](=O)[O-])c2)cc1	< 0.17 µM	–	–
O=C(Nc1cc(Cl)cc(Cl)c1)c1cc([N+](=O)[O-])cc([N+](=O)[O-])c1	45.1 µM (≈ 16.1 µg/mL)	–	–
O=C(NCCc1ccccc1)c1cc([N+](=O)[O-])cc([N+](=O)[O-])c1	< 0.19 µM	> 12.7 µM	0.795 µM (≈ 0.251 µg/mL)
